Measured values published in PubChem BioAssay AID602167 (The Scripps Research Institute Molecular Screening Center, 2012).
Active and inactive are the calls of the source. The rule behind the calls is not given here.

The compounds below were run against transactivating tegument protein VP16 (Human herpesvirus 1), as a GAL4-VP16 activation-domain luciferase reporter (assay: GAL4-VP16 reporter repression curves – cell-based, luminescence, high throughput, SRC3 series, counter-screen for SRC3 inhibitor project, dose response (AID 602167)). Conditions: VP16 transactivation luciferase reporter cells.
For `Nc1ncnc(NCc2ccccc2)c1[N+](=O)[O-]`, the IC50 was “inactive”. With `Cc1nc2c(-c3ccc(Cl)cc3)cnn2c(N)c1-c1ccc(F)cc1` the IC50 was 1.2 µM. In the case of `O=[N+]([O-])c1cccc2c1ccc1ncccc12`, the IC50 is reported as “inactive”. `CN1C(=O)C2(C(C#N)=C(N)N(c3cc(Cl)cc(Cl)c3)C3=C2C(=O)CC(C)(C)C3)c2ccccc21` (configuration not stated) was tested, and the IC50 was “inactive”. `Cc1ccc2occ(/C=N/NC(=O)[C@@H](N)Cc3ccccc3)c(=O)c2c1` was tested, and the IC50 was 9.66 µM. For `O=C(Nc1ccc(OCC(=O)N2CCOCC2)cc1)c1cncc(Br)c1`, the IC50 was “inactive”. In the case of `O=C(CCl)N(c1ccccc1)C1CCCCC1`, the IC50 is reported as “inactive”. `Cc1nc(N)nc(N)c1-c1ccc(Cl)c(Cl)c1` was tested, and the IC50 was > 11.9 µM (inactive). With `COc1ccc(Nc2ccncc2[N+](=O)[O-])cc1` the IC50 was 6.45 µM. In the case of `CC1CCN(C2=NC(=O)/C(=C/c3ccccc3F)S2)CC1`, the IC50 is reported as “inactive”. `CC(C)(C)C(=O)Nc1ccc(N=Nc2ccccc2)cc1` was tested, and the IC50 was > 35.9 µM (inactive). `Cc1ccc(/C=C2\SC(=S)N(CCCC(=O)NC3CCCC3)C2=O)cc1` gave an IC50 of 4.58 µM. For `CCCc1c(C)nc2ccccc2c1SCCC#N`, the IC50 was “inactive”. For `COc1ccccc1N(C(=O)CCl)c1cn(C(C)=O)c2ccccc12`, the IC50 was 8.58 µM. For `O=[N+]([O-])c1ccc(N(CCO)CCO)c2c1no[n+]2[O-]`, the IC50 was 5.59 µM. Compound `O=C(N/N=C\c1ccc([N+](=O)[O-])s1)c1cncc(Br)c1` has an IC50 of 6.45 µM. For `CN1C(=O)C2(C(C#N)=C(N)N(c3cc(Cl)cc(Cl)c3)C3=C2C(=O)CCC3)c2ccccc21` (configuration not stated), the IC50 was “inactive”. `CCCCN1C=CC(=C2C(=O)c3ccccc3C2=O)C=C1` showed an IC50 of 5.59 µM. With `CCOC(=O)C(C(C)=O)c1c(Br)c(O)c(O)c2c(C(=O)c3ccc(C)cc3)coc12` (configuration not stated) the IC50 was 4.28 µM. Work on `CCOc1cc(/C=C2\CCC/C(=C\c3cc(Cl)c(O)c(OCC)c3)C2=O)cc(Cl)c1O` yielded an IC50 of 4.82 µM. For `O=C(OCCC12CC3CC(CC(C3)C1)C2)c1ccc(NCc2cc(O)ccc2O)cc1`, the IC50 was 5.45 µM. For `O=c1[nH]cnc2c1nnn2C1OC(CO)C(O)C1O` (configuration not stated), the IC50 was “inactive”. In the case of `CCc1nc(N)nc(N)c1-c1ccc(Cl)c([N+](=O)[O-])c1`, the IC50 is reported as > 35.8 µM (inactive). With `COc1cccc(/C=N/Nc2cc(-n3nc(C)cc3-c3ccccc3)ncn2)c1O` the IC50 was 6.45 µM. In the case of `Cc1cc2nccc(-c3ccncc3)n2n1`, the IC50 is reported as “inactive”. With `Nc1nc2c(nnn2C2CC(O)C(CO)O2)c(=O)[nH]1` (configuration not stated) the IC50 was “inactive”. Compound `COc1cc(/C=C(/C(=O)c2cccs2)c2nc3ccccc3[nH]2)cc(OC)c1O` has an IC50 of 8.01 µM. In the case of `Cc1ccc(C2=NN(C(=O)CCl)C(c3cccs3)C2)o1` (configuration not stated), the IC50 is reported as “inactive”. `CCOc1ccc(Nc2cc(C)nc(-n3nc(C)cc3C)n2)cc1` was tested, and the IC50 was “inactive”. In the case of `Cc1ccc2occ(/C=N/NC(=O)c3ccccc3Br)c(=O)c2c1`, the IC50 is reported as 9.36 µM. `CCn1c2ccccc2c2cnc(N=CN(C)C)c(C#N)c21` was tested, and the IC50 was “inactive”. In the case of `CC(=O)NC(c1cc(Cl)c2cccnc2c1O)C(C)C` (configuration not stated), the IC50 is reported as “inactive”. With `CCc1ccc(-c2nc(CSCC(=O)NCc3ccco3)c(C)o2)cc1` the IC50 was “inactive”. In the case of `CCOc1ccccc1-n1c(SCC(=O)Nc2ccccc2C(=O)O)nc2ccccc2c1=O`, the IC50 is reported as “inactive”. In the case of `O=C(CCl)NC(Cc1ccccc1)c1ccccc1` (configuration not stated), the IC50 is reported as “inactive”. With `CCOc1cc(C(N)=O)cc(Br)c1OC` the IC50 was > 35.9 µM (inactive). With `CC(=O)Nc1ccc(SCC(=O)c2cc(C)n(-c3ccccc3)c2C)cc1` the IC50 was > 35.9 µM (inactive). With `O=C(N/N=C\c1ccc([N+](=O)[O-])o1)C1COc2ccccc2O1` (configuration not stated) the IC50 was “inactive”. With `N#Cc1c2ccc(O)cc2n2ccccc12` the IC50 was > 35.9 µM (inactive). With `O=C(NCc1ccccc1)c1c(Cl)nc(Cl)c(Cl)c1Cl` the IC50 was “inactive”. With `C(=Cc1cnc2ccccc2n1)c1ccc2c(c1)OCO2` the IC50 was “inactive”. `O=C(Nc1nc2cc3c(cc2s1)OCCO3)C1=COCCO1` showed an IC50 of 7.78 µM. In the case of `NC(=S)N/N=C1\CCOc2ccc(Cl)cc21`, the IC50 is reported as “inactive”. With `O=C(Nc1cccnc1)c1ccc(C(=O)Nc2cccnc2)cc1` the IC50 was > 35.9 µM (inactive). `OCCN1CCN(C(=S)c2ccc(-c3ccccc3)cc2)CC1` was tested, and the IC50 was > 35.9 µM (inactive). Work on `COc1ccc(C(C(=O)NC2CCCCC2)N(C(=O)CCl)c2ccc(Cl)cc2)cc1` (configuration not stated) yielded an IC50 of 5.27 µM. `Cc1sc2ncnc(N3CCC(C(=O)Nc4ccccc4C(C)(C)C)CC3)c2c1C` showed an IC50 of 8.88 µM. Compound `CCCCC(=O)NC(c1ccc(Cl)cc1Cl)c1ccc2cccnc2c1O` (configuration not stated) has an IC50 of 4.78 µM. In the case of `Cc1c(/C(O)=C2/C(=O)C(=O)N(Cc3cccnc3)C2c2ccccn2)cnn1-c1ccccc1` (configuration not stated), the IC50 is reported as > 35.9 µM (inactive). With `O=C(Nc1nc2ccccc2s1)C1c2ccccc2Oc2ccccc21` the IC50 was “inactive”. `O=C(c1ccncc1)N(Cc1cc2ccccc2[nH]c1=O)C1CCCCC1` gave an IC50 of 7.96 µM. `COC(=O)c1c(C)n(-c2ccc(OC)cc2)c2ccc(O)cc12` showed an IC50 of 8.88 µM. In the case of `CN(C)/C=C/C(=O)c1ccc2noc(-c3ccccc3)c2c1`, the IC50 is reported as “inactive”. In the case of `CC(=O)c1cccc(-c2csc3ncnc(Sc4nnnn4C)c23)c1`, the IC50 is reported as 6.89 µM. With `C#CC(=O)N(c1cc(OC)ccc1OC)C(C(=O)NC1CCCC1)c1cccs1` (configuration not stated) the IC50 was > 35.9 µM (inactive). `COc1cccc(/C=N/Nc2ccc([N+](=O)[O-])cn2)c1O` showed an IC50 of 4.48 µM. In the case of `Cc1ccc(-n2c(C)cc(C(=O)COc3cccnc3[N+](=O)[O-])c2C)cc1`, the IC50 is reported as “inactive”. `COc1ccccc1C(=O)N(CCC1CCCN1C)c1nc2ccccc2s1` (configuration not stated) showed an IC50 of 7.9 µM. In the case of `COc1cc(/C=N/NC(=Nc2ccc(C)cc2)c2nc3ccccc3s2)ccc1O`, the IC50 is reported as “inactive”. `CC(=O)N1CCN(c2ncnc3ccccc23)CC1` was tested, and the IC50 was “inactive”. With `CC(=O)Nc1ccc(SCC(=O)c2cc(C)n(-c3ccccc3F)c2C)cc1` the IC50 was > 12 µM (inactive). With `COc1cc2c(ccc3cc(OC)c(OC)c(O)c32)cc1O` the IC50 was “inactive”. With `C=CS(=O)(=O)N(Cc1ccc(Cl)c(Cl)c1)C[C@@H](O)CO` the IC50 was “inactive”. `Nc1ccc(Oc2ccccc2-c2ccccc2)cc1` was tested, and the IC50 was “inactive”. `COc1ccc(/C=C2\CN(Cc3ccccc3)C/C(=C\c3ccc(OC)c(O)c3)C2=O)cc1O` was tested, and the IC50 was “inactive”. In the case of `COc1ccc(C(C(=O)NC2CCCCC2)N(C(=O)CCl)c2ccc(OC)cc2)cc1` (configuration not stated), the IC50 is reported as 6.59 µM. For `O=S(=O)(c1ccc(F)cc1)c1snnc1-c1ccccc1`, the IC50 was “inactive”. With `O=C(Nc1ccccc1Oc1ccccc1)c1cc([N+](=O)[O-])ccc1Cl` the IC50 was “inactive”. In the case of `O=C(CCCc1nc(-c2ccccc2Cl)no1)NC1CCCC1`, the IC50 is reported as “inactive”. For `COc1ccc(/C=C2\CC/C(=C\c3ccc(OC)c(OC)c3)C2=O)cc1OC`, the IC50 was “inactive”. `COC(=O)c1cc(S(=O)(=O)NCCc2ccc(Cl)cc2)c[nH]1` was tested, and the IC50 was “inactive”. For `COc1cc(/C=N/NC(N)=S)cc(Br)c1OCc1ccccc1F`, the IC50 was > 12 µM (inactive). With `CO[C@@]12[C@@H]3N[C@@H]3CN1C1=C(C(=O)C(N)=C(C)C1=O)[C@@H]2COC(N)=O` the IC50 was > 35.8 µM (inactive). In the case of `Cc1nc(N2CCC(C(N)=O)CC2)c2c(-c3cccs3)csc2n1`, the IC50 is reported as “inactive”. `O=C(CCl)Nc1cccc(-c2cnc3ccccc3n2)c1` was tested, and the IC50 was “inactive”. For `CN(Cc1cnc2nc(N)nc(N)c2n1)c1ccc(C(=O)NC(CCC(=O)O)C(=O)O)c2ccccc12` (configuration not stated), the IC50 was > 35.9 µM (inactive). With `Cc1ccc(NC(=O)c2cc(C)n(-c3ccccc3)c2C)cc1` the IC50 was 0.223 µM. For `COc1cc(C(=O)N/N=C(\c2ccccc2)c2ccccn2)cc(OC)c1OC`, the IC50 was 7.23 µM. `C[C@@H](C(=O)Nc1ccc2c(c1)OCCO2)n1c(=O)[nH]c2ccccc2c1=O` was tested, and the IC50 was “inactive”. For `CC(=O)/C(N=Nc1ccc2c(c1)OCCO2)=C(\C)O`, the IC50 was > 12 µM (inactive). In the case of `O=c1[nH]c2ccccc2n1C1CCN(C(c2ccccc2)c2nnnn2-c2ccc3c(c2)OCCO3)CC1` (configuration not stated), the IC50 is reported as “inactive”. For `COc1ccc(-c2cn[nH]c2-c2ccc(OC)cc2O)cc1`, the IC50 was 6.04 µM. `c1csc(Cc2nn3c(-c4ccncc4)nnc3s2)c1` was tested, and the IC50 was “inactive”. Compound `Clc1ccc(-c2csc3ncnc(NCCN4CCOCC4)c23)cc1` has an IC50 of 8.01 µM. For `COc1ccc(OC)c(N/C=C/C(=O)c2ccccc2)c1`, the IC50 was “inactive”. For `O=C(NC(NC(=S)N1CCOCC1)C(Cl)(Cl)Cl)c1ccc(Cl)cc1` (configuration not stated), the IC50 was > 35.9 µM (inactive). For `CCC(=O)N1CCN(c2ccnc3cc(Cl)ccc23)CC1`, the IC50 was “inactive”. `Cn1cnc([N+](=O)[O-])c1Sc1nc(N)nc2c1ncn2C1OC(CO)C(O)C1O` (configuration not stated) showed an IC50 of 7.47 µM. With `COCCNC(=O)c1cc(-c2ccccn2)nc2ccc(S(=O)(=O)N3CCC(C)CC3)cc12` the IC50 was > 35.9 µM (inactive). With `NC(=O)c1sc2nc3c(c(-c4ccco4)c2c1N)CCC3` the IC50 was 3.1 µM. For `CCOC(=O)c1cc2sccc2n1CC(=O)N1CCc2ccccc21`, the IC50 was > 35.9 µM (inactive). For `O=C(CC(Nc1ccc(Cl)cc1Cl)C(=O)O)c1ccccc1` (configuration not stated), the IC50 was 4.77 µM. `Nc1nc(=S)c2ncn([C@@H]3O[C@H](CO)[C@@H](O)[C@H]3O)c2[nH]1` gave an IC50 of 3.37 µM. In the case of `CC1(C)N=C(N)N=C(N)N1CCCCc1ccccc1`, the IC50 is reported as 5.25 µM. With `Cc1ccc(/C=C2/SC(=S)N(CCCC(=O)Nc3ccc(O)cc3)C2=O)cc1` the IC50 was “inactive”. For `O=C(COc1ccc(Cl)cc1)Nc1ccc(C(=O)NCc2cccnc2)cc1`, the IC50 was “inactive”. For `CC(C)(C)c1ccc(-c2noc(CCC(=O)Nc3cccnc3)n2)cc1`, the IC50 was “inactive”. For `O=C(CC1CS(=O)(=O)CC1CC(=O)Nc1ccc2c(c1)OCCO2)Nc1ccc2c(c1)OCCO2` (configuration not stated), the IC50 was “inactive”. With `CN(Cc1cnc2nc(N)nc(N)c2n1)c1ccc(C(=O)NC(CCC(=O)O)C(=O)O)cc1` (configuration not stated) the IC50 was > 35.9 µM (inactive). With `COc1cc(/C=C2\CC(C(C)(C)C)C/C(=C\c3cc(OC)c(OC)c(OC)c3)C2=O)cc(OC)c1OC` (configuration not stated) the IC50 was 4.47 µM. In the case of `COc1ccc(OC)c(Cc2cnc3nc(N)nc(N)c3c2C)c1`, the IC50 is reported as > 35.9 µM (inactive). For `C=CCn1c(C)cc(C(=O)COc2ccc(C)nc2[N+](=O)[O-])c1C`, the IC50 was “inactive”. In the case of `CC(=O)c1cccc(NC(=O)Nc2ccc3c(c2)N(C)C(=O)CS3)c1`, the IC50 is reported as “inactive”. In the case of `CS(=O)c1nc(-c2ccc(Br)cc2)cc(-c2ccccc2)c1C#N` (configuration not stated), the IC50 is reported as “inactive”. `Oc1ccc(C=NNc2ccccn2)c(O)c1` was tested, and the IC50 was “inactive”. `CCOC(=O)C(=CNc1ccc(NC2=NCC(C)S2)cc1)C(=O)OCC` (configuration not stated) was tested, and the IC50 was “inactive”. With `CC(C)(C)n1ncc2c(=O)n(CC(=O)OCc3ccccc3)cnc21` the IC50 was “inactive”.
